Results taken from US20120322060A1, “DIAGNOSIS AND MONITORING TREATMENT OF PSYCHIATRIC DISEASES WITH SPADIN AND RELATED METHODS” (CENTRE NATIONAL DE LE RECHERCHE SCIENTIFIQUE - CNRS -, priority 2011, published 2012).
Where two headings read alike, the source gives them in different places. No end group written: not given here.

Legend:
TREK-1 [1] = biological target: T1, TREK-1 (Mus musculus, UniProt P97438); assay: Whole-cell patch-clamp on TREK-1 transfected COS-7 cells; type: cell-based; parameters: GFP; expressed in transfected cells; host or cells: COS-7 (DEAE-dextran transfection); details: 500 nM, 10 μM aa, at 0 mV, n=4
T1 sequence (P97438 1-426): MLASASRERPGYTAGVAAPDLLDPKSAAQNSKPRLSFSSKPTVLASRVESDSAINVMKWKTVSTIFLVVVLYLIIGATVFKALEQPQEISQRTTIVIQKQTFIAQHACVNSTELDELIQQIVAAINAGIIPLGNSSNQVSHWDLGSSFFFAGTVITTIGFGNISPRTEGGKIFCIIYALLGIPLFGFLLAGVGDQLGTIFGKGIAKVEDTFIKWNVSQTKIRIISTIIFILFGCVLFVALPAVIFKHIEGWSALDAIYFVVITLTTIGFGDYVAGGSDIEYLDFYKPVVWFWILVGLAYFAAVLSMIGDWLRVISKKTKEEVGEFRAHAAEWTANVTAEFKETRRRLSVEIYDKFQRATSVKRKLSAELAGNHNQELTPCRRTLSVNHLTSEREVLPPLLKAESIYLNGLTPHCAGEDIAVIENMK
Protocol: All electrophysiological experiments were done on COS-7 cells seeded at a density of 20,000 cells/35-mm dish 24 h before transfection. Cells were transfected by the classical DEAE-dextran method with TREK-1-GFP plasmids (0.1 μg/μL). Cells were visualized 48-72 h after transfection using fluorescence.
The whole-cell patch-clamp technique was used to evaluate TREK-1 potassium channel current by using a RK 400 patch-clamp amplifier (Axon Instruments, U.S.A.), as previously described. Currents were lowpass filtered at 3 kHz, digitized at 10 kHz using a 12-bit analog-to-digital converter. […] The bath solution contained (in mM): 150 NaCl, 5 KCl, 3 MgCl2, 1 CaCl2, and 10 HEPES, adjusted to pH 7.4 with NaOH; the patch pipette solution contained (in mM): 155 KCl, 3 MgCl2, 5 EGTA, and 10 HEPES, adjusted to pH 7.2 with KOH. Cells were clamped at −80 mV and voltage changes were either applied by ramp (from −100 to 50 mV, 1 s in duration) or by step (from −100 to 40 mV, 1.5 s in duration). Cells were continuously superfused with a microperfusion system. The pipette capacitance was not subtracted from total membrane capacitance and there was no leak substraction. All experiments were done at room temperature (21° C. to 22° C.) and in the presence of a cocktail of potassium channel inhibitors (K^+ blockers: 10 mM tetraethyl ammonium (TEA), 3 mM 4-aminopyridine (4-AP), 50 nM charybdotoxin, 10 μM glibenclamide, 100 nM apamin).
Pclamp software was used to analyze currents recorded in the whole-cell mode measured at 0 mV. Results are expressed as means±SD. To obtain the IC50 value for dose-dependent inhibition, experimental data were fitted with a standard sigmoidal function.

NTSR3/Sortilin = biological target: T2, NTSR3/Sortilin (Homo sapiens, UniProt Q99523); details: cited from earlier work; for binding activity / affinity for NTSR3/Sortilin: structure-function studies [15]
T2 sequence (Q99523 78-831): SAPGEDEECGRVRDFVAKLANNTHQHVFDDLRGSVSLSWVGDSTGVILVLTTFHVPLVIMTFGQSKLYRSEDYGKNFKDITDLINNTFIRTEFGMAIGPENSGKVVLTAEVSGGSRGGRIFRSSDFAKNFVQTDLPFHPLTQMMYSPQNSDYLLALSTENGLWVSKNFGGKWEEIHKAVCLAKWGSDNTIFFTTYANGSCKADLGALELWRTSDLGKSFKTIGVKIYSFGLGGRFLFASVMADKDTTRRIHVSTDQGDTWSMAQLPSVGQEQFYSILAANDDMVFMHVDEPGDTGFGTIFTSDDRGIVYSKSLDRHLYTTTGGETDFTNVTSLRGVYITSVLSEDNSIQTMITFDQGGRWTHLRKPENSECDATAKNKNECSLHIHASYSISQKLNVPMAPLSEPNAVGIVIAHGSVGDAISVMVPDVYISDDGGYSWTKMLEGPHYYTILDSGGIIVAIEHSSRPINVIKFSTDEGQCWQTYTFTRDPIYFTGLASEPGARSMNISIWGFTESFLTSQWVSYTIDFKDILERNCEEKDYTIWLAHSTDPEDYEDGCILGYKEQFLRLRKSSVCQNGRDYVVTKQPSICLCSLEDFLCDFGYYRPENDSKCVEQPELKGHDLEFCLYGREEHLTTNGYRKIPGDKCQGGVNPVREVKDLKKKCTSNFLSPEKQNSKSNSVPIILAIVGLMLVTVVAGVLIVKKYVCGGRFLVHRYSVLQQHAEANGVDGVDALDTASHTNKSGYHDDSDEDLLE

[2] = biological target: TREK-1 channel (expressed by transfection in COS-7 cells); assay: cell-based or functional assay
[3] = biological target: NTSR3/Sortilin (endogenous, C13NJ microglial cell line); assay: cell-based or functional assay
mice [4] = assay: Staircase test; type: in vivo, mouse; details: spadin i.p. 10^-5 M, diazepam i.p. 0.5 mg/kg
Protocol: The apparatus comprised an enclosed staircase consisted of five identical steps (2.5 cm in height×11 cm in width×7.5 cm in length), each made of black plastic. The height of the walls was constant (12.5 cm above the stairs) along the entire length of the staircase. Each mouse was placed individually on the floor of the staircase with its back to the staircase. A step was considered climbed only if the mouse placed all four paws on it. Rearing was recorded when the mouse rose on its hind legs either on the step or against the wall. The number of steps ascended and the number of rearings made in a 3-min period were recorded. Results were expressed as ratio of rearing/step numbers.

mice [5] = assay: Light/dark exploration; type: in vivo, mouse; details: spadin i.p. 10^-5 M, diazepam i.p. 0.5 mg/kg
Protocol: The apparatus consisted of a cage (25×40×20 cm) divided into two compartments by a black partition containing a small opening that allows mouse to move from one compartment to the other. One compartment, comprising […] of the surface area, was made of white plastic and was brightly illuminated. The adjoining smaller compartment was black and dark. Mice were placed in the white compartment and allowed to move freely between the two chambers for 5 minutes. The number of transitions between the two compartments, time spent in the white chamber, and latency to the first transition were recorded. Mice tend to avoid the white compartment. Thus the measures of exploration in this area (time and entrances) were used as experimental indices of anxiety.

mice [6] = assay: Elevated plus-maze; type: in vivo, mouse; details: spadin i.p. 10^-5 M, diazepam i.p. 0.5 mg/kg
Excerpt: Elevated plus-maze. The apparatus consisted of two open and two enclosed arms of the same size (45×5 cm) with walls 15 cm high. The arms, constructed of black acrylic, radiate from a common central platform (5×5 cm) to form a plus sign. Open arms were arranged opposite to one another, as were closed arms. The maze was elevated to a height of 45 cm above floor level. Each mouse was placed in the central platform facing one of the open arms. The number of entries into the open and closed arms and the time spent on the open and closed arms were recorded during a 5 min test period. Time spent in the unprotected open arms as well as the number of entries in open arms in relation to the total of arm entries are used as experimental indices of anxiety.

TREK-1 [7] = biological target: T1, TREK-1; assay: Whole-cell patch-clamp on CA3 pyramidal neurons in hippocampus brain slices; type: cell-based; parameters: a cellular network that endogenously expresses both TREK-1 and NTSR3/Sortilin; from tissue; host or cells: mouse hippocampal brain slices, CA3 pyramidal neurons; details: wild-type CA3 neurons, K+ blockers, 10 μM aa, n=12
TREK-1 [8] = biological target: T1, TREK-1; assay: Whole-cell patch-clamp on cultured pyramidal neurons from hippocampus; type: cell-based; parameters: endogenous in cells; host or cells: primary hippocampal pyramidal neurons from newborn mice; details: 10 μM, K+ blockers, at -50 mV, 7 out of 70 neurons
Protocol: A, Cultured pyramidal neuron from hippocampus, with on top, the patch-clamp pipette. Neurons were chosen according to their morphology. B, Current recorded in response to ramps of potential obtained in the various conditions indicated (aa: arachidonic acid: 10 μM, Spadin: 1[…]μM, Fluoxetine: 20 μM). Neurons were recorded in the whole-cell configuration of the patch-clamp technique. In voltage-clamp, ramps of potential from −90 mV to 70 mV were applied every 10 sec. The % variation of the current amplitude was always measured at −50 mV. The currents were recorded in response to such ramps in control conditions and in the presence of a cocktail of potassium blockers suitable to isolate the TREK currents (10 mM tetraethyl ammonium (TEA), 3 mM 4-aminopyridine (4-AP), 50 nM charybdotoxin, 10 μM glibenclamide, 100 nM apamin). […] The blocks were reversible. C, Time course of spadin and fluoxetine effects. Applications are indicated by the horizontal bars.
Cortical neurons were prepared from 14 old mouse embryos whereas hippocampal neurons were prepared from new born mice. Briefly, dissected brain areas were dissociated and neurons were plated on polylysine-treated 35 or 60 mm dishes and maintained in culture in Neurobasal medium supplemented with B27, Glutamax and antibiotics for 2 to 3 weeks before to be used for electrophsysiological or biochemical experiments.

[9] = biological target: TREK-1 channel (expressed by transfection in COS-7 cells); assay: competition with 0.2 nM 125I-spadin on TREK-1 transfected COS-7 cell homogenates, filtration

Chain of TREK-1 channel (expressed by transfection in COS-7 cells) (O95069 whole entry): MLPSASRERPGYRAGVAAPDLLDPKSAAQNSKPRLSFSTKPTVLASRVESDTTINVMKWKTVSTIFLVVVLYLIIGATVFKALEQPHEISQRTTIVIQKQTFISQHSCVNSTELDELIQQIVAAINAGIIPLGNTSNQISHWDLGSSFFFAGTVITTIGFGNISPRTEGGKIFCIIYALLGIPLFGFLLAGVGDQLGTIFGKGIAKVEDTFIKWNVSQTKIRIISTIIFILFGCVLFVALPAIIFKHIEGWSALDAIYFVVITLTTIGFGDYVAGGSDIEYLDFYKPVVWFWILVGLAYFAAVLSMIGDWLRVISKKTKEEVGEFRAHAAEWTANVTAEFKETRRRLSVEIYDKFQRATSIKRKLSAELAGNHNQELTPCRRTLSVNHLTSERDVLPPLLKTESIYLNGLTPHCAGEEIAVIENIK

In the case of “QDRLDAPPPPAAPLPRWSGPIGVSWGLRAAAAGGAFPRGGRWRR [propeptide, 44 residue N-terminal propeptide released from prosortilin by furin]”, the “block of aa stimulated TREK-1 current” value (TREK-1 [1]) is given as 41±5% and the Kd (NTSR3/Sortilin; read-out: Kd for the mature receptor) is given as ~5 nM.

In the case of “Gln^1-Arg^28: peptide Gln1-Arg28 of the NTSR3/Sortilin propeptide, from literature”, the “binding activity / affinity for NTSR3/Sortilin” value (NTSR3/Sortilin) is given as “as efficient on the binding activity as the entire propeptide” and the “binding activity / affinity for NTSR3/Sortilin” value (NTSR3/Sortilin; listed as Gln^1-Arg^16) is given as “very low”.

With “NTSR3/Sortilin (expressed by transfection in COS-7 cells) (from UniProt Q99523 78-831) (receptor)” the expression of TREK-1 within the plasma membranes (cell surface biotinylation, Western blot) [2] was 6 fold and the expression of TREK-1 within the plasma membranes (purified plasma membranes, Western blot) [2] was 3 fold.

“neurotensin (from UniProt P30990 151-163) (peptide)” gave a C13NJ cell migration in wound-healing assay with 10 nM NT (% of migration with 10% FCS) [3] of 35.1%.

For `CN1C(=O)CN=C(c2ccccc2)c2cc(Cl)ccc21` [diazepam, reference compound], the rearing/step numbers ratio (mice [4]) was “decrease of the rearing/step numbers ratio”, the “number of light/dark transitions” value (mice [5]) was “significantly induced an increase” and the “time spent in the open arms” value (mice [6]) was “significantly reduced the time spent into the aversive open arms”.

For `CCCCC/C=C\C/C=C\C/C=C\C/C=C\CCCC(=O)O` [arachidonic acid, Arachidonic acid], the “increase of amplitude of the remaining current” value (TREK-1 [7]) was 23.3+4.8% and the “increase of remaining current” value (TREK-1 [8]) was “about 50%”.

APLPRWSGPIGVSWGLR (also: monoiodinated (125I) on Tyr0, an added N-terminal Tyr not in given chain) [125I-spadin] showed a share of cell-bound 125I-spadin resistant to the acid-NaCl wash (intracellular) on TREK-1 expressing COS-7 cells at 37° C. [2] of 80%.

Molecule QDRLDAPPPPAAPLPR [N-terminal fragment Gln1-Arg16 of the full length propeptide] has an affinity [9] of 1 µM.
